Data as given in patent US20170239289A1, “TREATMENT OF INFLAMMATION, RESPIRATORY TRACT INFECTIONS AND CYSTIC FIBROSIS” (Advanced Inhalation Therapies (AIT) Ltd., priority 2014, published 2017).
“Also recorded” adds a separate entry of the source.

Experiments:
[1] = tested on: human subjects diagnosed with cystic fibrosis; test: Example 4: CF study, 160 ppm NO 30 min 3x daily for 10 treatment days; safety; type: in vivo
Method: In addition to their standard care, subjects were administered three 30-minute inhalations per day of 160 ppm NO (with O2/air) for 10 working days (i.e., 5 days on treatment, 2 days off treatment, 5 days on treatment, for a total of 10 treatment days and 30 inhalations).
A minimum time interval of 3.5 hours from the end of one treatment to the beginning of the next treatment was required.
As a safety measure, during NO administration, human subjects' MetHb and 02 saturation levels in the blood were monitored utilizing a commercial “off the shelf” co-oxymeter (Masimo Corporation Model RAD-57/RAD 87).
In the event of MetHb greater than 5% or O2 saturation less than or equal to 88%, treatment was temporarily discontinued, and measure repeated 30 minutes later. If value(s) had returned to above the safety threshold, the next inhalation was started according to protocol. In any case of a second episode of MeHb greater than 5%, study treatment was to be permanently discontinued.
Primary Endpoints—Safety and Tolerability: • Safety • Determine the MetHb levels during treatment with inhaled NO • Determine other AEs associated with inhaled NO • Tolerability • Proportion of subjects (%) who prematurely discontinued the study or study treatment for any reason • Proportion of subjects (%) who prematurely discontinued the study treatment due to AEs or SAEs • Proportion of subjects (%) who prematurely discontinued the study treatment due to AEs or SAEs associated with inhaled NO
All measured variables and derived parameters were listed individually and tabulated by descriptive statistics. For categorical variables, summary tables were provided giving sample size, absolute and relative frequency. For continuous variables, summary tables were provided giving sample size, arithmetic mean, SD, median, minimum and maximum and 95% CI for means of variables. For the ITT cohort, the LOCF approach was applied, when deemed appropriate, to account for missing data at or prior to study termination. Methemoglobin was summarized in appropriate descriptive tables. The percent of subjects with MetHb level greater than 5% was calculated per time point. Changes from baseline in MetHb levels were analyzed using Signed rank test for two means. Laboratory results were summarized in appropriate tables by time. Changes from baseline were calculated and presented as well.

[2] = tested on: human subjects diagnosed with, or suffering from CF; test: Example 1: open-label Phase 2 CF study, 160 ppm NO 30 min 3x daily, 5 days/week, 2 weeks; safety monitoring; type: in vivo
Method: NO was administered via inhalation to nine clinically stable human subjects diagnosed with, or suffering from CF from two medical centers. Patients received three daily 30-minute treatments of 160 ppm NO with at least 3.5 hours between treatments, for 5 days per week over a two-weeks time period.
Safety parameters, including NO and nitrogen dioxide (NO2 via NO2^−/NO3^−) concentrations, inhaled fraction of inspired oxygen (FiO2), methemoglobin level (SpMet, or “% MetHb”), and oxyhemoglobin (oxygen) saturation (SpO2 or SaO2), were continuously monitored using a noninvasive pulse-oximetry device RAD-57™ or RAD-87™ by Masimo Irvine, Calif. These devices also monitor Perfusion Index (PI), Respiration Rate (RRa), Total Hemoglobin (SpHb), Carboxyhemoglobin (SpCO), Oxygen Content (SpOC) and Pleth Variability Index (PVI®). Vital signs, including blood pressure, pulse, and respiratory rate were also closely monitored.

[N]=O [NO, nitric oxide]
AEs of MetHb elevation greater than 5% or NO2 elevation greater than 5 ppm ([1]; N=9): no AEs
AEs possibly or probably related to treatment, % of subjects ([1]; N=9): 22.2%
Adverse events reported by, % of subjects ([1]; N=9): 55.5%
Severe or serious AEs ([1]; N=9): no severe or serious AEs
maximum MetHb level ([1]; N=9): 4.6%
total AEs reported ([1]; N=9, 20 events in a single subject (SC-01)): 31
Subjects with MetHb greater than 5% ([1]; entire study treatment period, N=9): no subjects
cases of haemoptysis ([1]; in 2 subjects, all events mild): 7 cases
Cumulative effect on MetHb levels ([1]; over the study treatment period): no “cumulative” effect; also recorded: no cumulative effect
Average MetHb levels post treatment (mean±SD) ([2]; 9 subjects, 10 days of treatment): 2.4%
Oxygen saturation post treatment ([2]; all 9 subjects): more than 92%
MetHb levels throughout the trial (safety limit) ([2]; all subjects): < 5%
Changes in vital signs ([2]; during the study): no clinically significant changes in vital signs
Serious adverse events ([2]; during the study): No serious adverse events
